Reference: patent US6977254B2, “Hydroxy cyclohexenyl phenyl carboxamides tocolytic oxytocin receptor antagonists” (Wyeth, priority 2001, dated 2005)

molecular target: T1, human oxytocin receptor (Homo sapiens, UniProt P30559); assay: Oxytocin binding in CHO cell membranes expressing human oxytocin receptors ([3H]oxytocin radioligand); conditions: 100 nM, value without parentheses
T1 construct: host or cells: CHO cells, stably transfected (pcDNA3.1 vector); membranes
T1 sequence (P30559 1-389): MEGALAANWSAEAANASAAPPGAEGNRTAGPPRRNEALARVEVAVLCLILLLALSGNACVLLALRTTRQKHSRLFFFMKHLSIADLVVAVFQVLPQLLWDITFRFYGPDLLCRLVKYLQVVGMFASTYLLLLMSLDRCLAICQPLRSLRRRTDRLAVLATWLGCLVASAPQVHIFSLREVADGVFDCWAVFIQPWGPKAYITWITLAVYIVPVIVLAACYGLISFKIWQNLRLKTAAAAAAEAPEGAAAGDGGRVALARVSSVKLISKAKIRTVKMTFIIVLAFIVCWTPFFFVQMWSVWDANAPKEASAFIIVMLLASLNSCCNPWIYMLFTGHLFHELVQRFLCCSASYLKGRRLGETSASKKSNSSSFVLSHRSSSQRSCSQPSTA
Description: Oxytocin binding in Chinese Hamster Ovary cell membranes expressing human oxytocin receptors
Chinese Hamster Ovary (CHO) cells stably transfected with the human oxytocin (cf. T. Kimura et al., U.S. Pat. No. 5,466,584 (1995) to Rohto Pharmaceutical Co. Ltd., Osaka, Japan) were obtained from Dr. M. Thibonnier, Case Western Reserve University School of Medicine, Cleveland, Ohio.
A. Passaging and Amplification of Cells:
CHO cells transfected with the human oxytocin receptors obtained from M. Thibonnier (pcDNA3.1 vector) are allowed to grow to confluency (approx. >90%) in T-150 flasks under sterile conditions, in a cell culture medium of F-12 Nutrient Mixture (HAM) with L-glutamine (Gibco Cat. #11765-054) containing 15 mM HEPES (Gibco Cat. #15630-080), 1% antibiotic/antimycotic (add 5 mL 100×, Gibco Cat. #15240-062 per 500 mL F-12), 400 μg/mL of Geneticin (add 4 mL of 50 mg/mL per 500 mL F-12) and 10% Fetal Bovine Serum (Qualified, heat inactivated, Gibco Cat. #16140-063). The medium is removed by aspiration and the cells are washed with 10 mL of Hank's Balanced Salt solution (Gibco Cat. #14175-095). The salt solution is removed by aspiration and the cells trypsinized with 5 mL of trypsin-EDTA (0.05% trypsin, 0.53 mM EDTA-4Na, Gibco Cat. #25300-070) for 1 min The trypsin is removed by aspiration and the cells dislodged by tapping. Cell Culture medium (e.g. 30 mL for 1:30 split) is immediately added and mixed well to inactivate trypsin. 1 mL of detached cells is added to new culture flasks containing fresh Cell Culture medium (e.g. into 25 mL per T-150 flask), and mixed gently. The cells are incubated at 37° C. in 5% CO2. The medium is changed at 3 to 4 days interval (or as appropriate). The cells grow to confluency (approx. >75%-95%) within 7-8 days. All steps are done under sterile conditions.
The cells are washed twice gently with Hank's Balanced Salt solution (eg, use 10 mL per T-150 flask). The excess is removed and the cells bathed for 15-30 min. in an enzyme-free Cell Dissociation Buffer (eg, use 8 mL Hank's Based, Gibco Cat. #13150-016 per T-150 flask) until cells are loosened. The contents are transferred to centrifuge tubes (50 mL size) kept in ice bath. All subsequent steps are done at 4° C. The tubes are centrifuged at 300×g for 15 min (1380 rpm on SORVAL, Model RT6000D, using rotor for 50 mL tubes). The supernatant is discarded and the cells suspended in homogenizing buffer (10 mM Tris-HCl containing 0.25 M sucrose and 1 mM EDTA, pH 7.4) ensuring that the volume of the buffer is about ten times the volume of the cell pellet. The cells are pooled into a centrifuge tube (50 mL) and homogenized with Polytron at setting 6 for 10 sec. The homogenate is transferred into a Potter-Elvjehm homogenizer and homogenized with 3 strokes. The homogenate is centrifuged at 1500×g for 10 min at 4° C. (3100 rpm using SORVAL, model RT6000D, using rotor for 50 mL tubes). The pellet is discarded. The supernatant is centrifuged at 100,000×g for 60 min. at 4° C. (Beckman L8-80M ultracentrifuge; spin at 37,500 rpm with rotor type 70 Ti for 50 mL tubes; 38,000 rpm with type 80Ti for 15 mL tubes; or 35,800 rpm with rotor type 45Ti). The supernantant is discarded and the pellet suspended in 3 to 4 mL of Tris buffer (50 mM TRIS-HCl, pH 7.4). The protein content is estimated by the Bradford or Lowry method. The volume of the membrane suspension is adjusted with the membrane buffer (50 mM Tris-HCl containing 0.1% BSA and 0.1 mM PMSF) to give 3.0 mg/mL (or as appropriate) of protein. The membranes are aliquoted and stored at −70° C.
C. Radioligand Binding Assay:
In wells of a 96-well format microtiter plate, is added 90, 110 or 130 μL (to make up a final volume of 200 μL) of assay buffer containing 50 mM of Tris-HCl (pH 7.4), […], 1 mg % aprotinin, 1 mg % leupeptin, 2 mg % 1,10-phenanthroline, 10 mg % trypsin inhibitor, and 0.1 mM PMSF. The inhibitors are added on the day of the experiment. […]

OT % inhibition @ 100 nM	SMILES
98%	Cc1cc(C(=O)N2Cc3ccc(C(=O)N(CCO)CCO)n3Cc3ccccc32)ccc1C1=CCCc2ccccc21 [Example 16, {10-[4-(3,4-Dihydro-naphthalen-1-yl)-3-methyl-benzoyl]-10,11-dihydro-5H-pyrrolo[2,1-c][1,4]benzodiazepin-3-yl}-3-carboxylic acid bis-(2-hydroxy-ethyl)-amide]
88%	Cc1cc(C(=O)N2Cc3ccc(C(=O)N4CCN(CCO)CC4)n3Cc3ccccc32)ccc1C1=CCCCC1 [Example 17, {10-[4-(1-Cyclohex-1-en-1-yl)-3-methylbenzoyl]-10,11-dihydro-5H-pyrrolo[2,1-c][1,4]benzodiazepin-3-yl}[4-(2-hydroxyethyl)-1-piperazinyl]methanone]

same assay, conditions: 100 nM, value without parentheses, read-out: OT % inhibition @ 100 nM

inhibition at 0.1 µM	SMILES
23%	CCOC(=O)[C@H](Cc1ccc(O)cc1)NC(=O)c1ccc2n1Cc1ccccc1N(C(=O)c1ccc(C3=CCCCC3)c(C)c1)C2 [Example 9, (2S)-2-{[10-(4-Cyclohex-1-en-1-yl-3-methyl-benzoyl)-10,11-dihydro-5H-pyrrolo[2,1-c][1,4]benzodiazepine-3-carbonyl]-amino}-3-(4-hydroxy-phenyl)-propionic acid ethyl ester]
26%	Cc1cc(C(=O)N2Cc3ccc(C(=O)O)n3Cc3ccccc32)ccc1C1=CCCCC1 [Example 5E, 10-(4-Cyclohex-1-en-1-yl-3-methyl-benzoyl)-10,11-dihydro-5H-pyrrolo[2,1-c][1,4]benzodiazepine-3-carboxylic acid]
99%	Cc1cc(C(=O)N2Cc3ccc(C(=O)N(C)C[C@@H]4OC(=O)O[C@H]4[C@H](O)[C@H]4COC(=O)O4)n3Cc3ccccc32)ccc1C1=CCCCC1 [Example 7, 10-(4-Cyclohex-1-en-1-yl-3-methylbenzoyl)-N-[((4S,5S)-5-{(R)-hydroxy[(4R)-2-oxo-1,3-dioxolan-4-yl]methyl}-2-oxo-1,3-dioxolan-4-yl)methyl]-N-methyl-10,11-dihydro-5H-pyrrolo[2,1-c][1,4]benzodiazepine-3-carboxamide]
50%	Cc1cc(C(=O)N2Cc3ccc(C(=O)N[C@H](CO)C(=O)O)n3Cc3ccccc32)ccc1C1=CCCCC1 [Example 14, (2R)-2-{[10-(4-Cyclohex-1-en-1-yl-3-methyl-benzoyl)-10,11-dihydro-5H-pyrrolo[2,1-c][1,4]benzodiazepine-3-carbonyl]-amino}-3-hydroxy-propionic acid]
19%	Cc1cc(C(=O)N2Cc3ccc(C(=O)O)n3Cc3ccccc32)ccc1C1=CCCc2ccccc21 [Example 15B, 10-[4-(3,4-Dihydro-naphthalen-1-yl)-3-methyl-benzoyl]-10,11-dihydro-5H-pyrrolo[2,1-c][1,4]benzodiazepine-3-carboxylic acid]
63%	Cc1cc(C(=O)N2Cc3ccc(C(=O)N[C@@H](CO)C(=O)O)n3Cc3ccccc32)ccc1C1=CCCCC1 [Example 13, (2S)-2-{[10-(4-Cyclohex-1-en-1-yl-3-methyl-benzoyl)-10,11-dihydro-5H-pyrrolo[2,1-c][1,4]benzodiazepine-3-carbonyl]-amino}-3-hydroxy-propionic acid]
21%	COc1cc(C2=CCCCC2)c(Cl)cc1C(=O)N1Cc2ccc(C(=O)O)n2Cc2ccccc21 [Example 1G, 10-(5-Chloro-4-cyclohex-1-en-1-yl-2-methoxybenzoyl)-10,11-dihydro-5H-pyrrolo[2,1-c][1,4]benzodiazepine-3-carboxylic acid]

same assay, conditions: value in parentheses, read-out: OT (IC50)

IC50	SMILES
47.1 nM	COC(=O)[C@@H](CO)NC(=O)c1ccc2n1Cc1ccccc1N(C(=O)c1ccc(C3=CCCCC3)c(C)c1)C2 [Example 12, (2R)-2-{[10-(4-Cyclohex-1-en-1-yl-3-methyl-benzoyl)-10,11-dihydro-5H-pyrrolo[2,1-c][1,4]benzodiazepine-3-carbonyl]-amino}-3-hydroxy-propionic acid methyl ester]
13 nM	COC[C@@H](OC)[C@@H](OC)[C@H](OC)[C@H](CN(C)C(=O)c1ccc2n1Cc1ccccc1N(C(=O)c1ccc(C3=CCCCC3)c(C)c1)C2)OC [Example 8, 10-(4-Cyclohex-1-en-1-yl-3-methylbenzoyl)-N-methyl-N-[(2S,3R,4R,5R)-2,3,4,5,6-pentamethoxyhexyl]-10,11-dihydro-5H-pyrrolo[2,1-c][1,4]benzodiazepine-3-carboxamide]
0.96 nM	Cc1cc(C(=O)N2Cc3ccc(C(=O)N(C)C[C@H](O)[C@H]4OC(=O)O[C@@H]4[C@H](O)CO)n3Cc3ccccc32)ccc1C1=CCCCC1 [Example 6, 10-(4-Cyclohex-1-en-1-yl-3-methylbenzoyl)-N-((2S)-2-{(4R,5R)-5-[(1R)-1,2-dihydroxyethyl]-2-oxo-1,3-dioxolan-4-yl}-2-hydroxyethyl)-N-methyl-10,11-dihydro-5H-pyrrolo[2,1-c][1,4]benzodiazepine-3-carboxamide]
0.98 nM	COc1cc(C2=CCCCC2)c(Cl)cc1C(=O)N1Cc2ccc(C(=O)N(C)C[C@H](O)[C@@H](O)[C@H](O)[C@H](O)CO)n2Cc2ccccc21 [Example 1, 1-[[[10-[5-Chloro-4-(1-cyclohex-1-en-1-yl)-2-methoxybenzoyl]-10,11-dihydro-5H-pyrrolo[2,1-c][1,4]benzodiazepin-3-yl]carbonyl]methylamino]-1-deoxy-D-glucitol]
76.2 nM	COC(=O)[C@H](CO)NC(=O)c1ccc2n1Cc1ccccc1N(C(=O)c1ccc(C3=CCCCC3)c(C)c1)C2 [Example 11, (2S)-2-{[10-(4-Cyclohex-1-en-1-yl-3-methyl-benzoyl)-10,11-dihydro-5H-pyrrolo[2,1-c][1,4]benzodiazepine-3-carbonyl]-amino}-3-hydroxy-propionic acid methyl ester]
4.92 nM	COc1cc(C2=CCCCC2)c(Cl)cc1C(=O)N1Cc2ccc(C(=O)N(C)C[C@@H]3OC(=O)O[C@H]3[C@H](O)[C@H]3COC(=O)O3)n2Cc2ccccc21 [Example 3, 10-(5-Chloro-4-cyclohex-1-en-1-yl-2-methoxybenzoyl)-N-[((4S,5S)-5-{(R)-hydroxy[(4R)-2-oxo-1,3-dioxolan-4-yl]methyl}-2-oxo-1,3-dioxolan-4-yl)methyl]-N-methyl-10,11-dihydro-5H-pyrrolo[2,1-c][1,4]benzodiazepine-3-carboxamide]
3.19 nM	Cc1cc(C(=O)N2Cc3ccc(C(=O)N(C)C[C@H](O)[C@@H](O)[C@H](O)[C@H](O)CO)n3Cc3ccccc32)ccc1C1=CCCc2ccccc21 [Example 15]
